Measurements published in patent publication US20230295234A1, “ANTIMICROBIAL PEPTIDOMIMETICS” (SPEXIS AG, priority 2020, published 2023).
Bridge positions count the residues as written; N and C are the ends. Square brackets hold non-standard residues; d marks the D form. Peptide text beside a SMILES is read from it. Pro(4R-NH2) = N[C@H]1CN[C@H](C(=O)O)C1; Gly(N-2-aminoethyl) = NCCNCC(=O)O; Cha = N[C@@H](CC1CCCCC1)C(=O)O; Gly(N(CH2)3NH2) = NCCCNCC(=O)O; Pen = CC(C)(S)[C@H](N)C(=O)O; dDab = NCC[C@@H](N)C(=O)O; Nle = CCCC[C@H](N)C(=O)O; Orn = NCCC[C@H](N)C(=O)O; Dab = NCC[C@H](N)C(=O)O

Columns and labels:
[1] = tested on: human red blood cells (hRBC); experiment: Hemolysis of human red blood cells; type: cell-based; details: red cells of human, 1 h
Method: Lyophilized peptides were weighed on a Microbalance (Mettler MT5) and dissolved in sterile water to a final concentration of 1 mg/mL. Stock solutions were kept at +4° C., light protected. The peptides were tested for their hemolytic activity against human red blood cells (hRBC). Fresh hRBC were washed three times with phosphate buffered saline (PBS) and centrifuged for 5 min at 3000×g. Compounds (200 μg/mL) were incubated with 20% hRBC (v/v) for 1 h at 37° C. and shaking at 300 rpm. […] The samples were centrifuged, the supernatants were 8-fold diluted in PBS buffer and the optical densities (OD) were measured at 540 nm. […] Percent hemolysis was calculated as follows: (OD540peptide/OD540H2O)×100%.

[2] = tested on: Escherichia coli ATCC 25922; details: ATCC 25922
Method: (§1) Lyophilized peptides were weighed on a Microbalance (Mettler MT5) and dissolved in sterile water to a final concentration of 1 mg/mL. Stock solutions were kept at +4° C., light protected.
(§2) Colonies of the microorganisms were diluted in saline (0.85%, NaCl) and adjusted using a McFarland reader (bioMérieux SA, Marcy-l'Etoile, France) to 0.5 McFarland standard. Subsequently, the bacterial suspension was diluted in Mueller-Hinton II (MHII, cation adjusted) broth to give approximately 5×10^5 colony forming units (CFU/mL).
(§3) 10^6 colony forming units (CFU)/mL. Aliquots (90 μl) of inoculate were added to 10 μl of water+P-80 (Polysorbate 80, 0.002% final concentration) containing the peptide in serial two-fold dilutions at 10 fold final concentration. The following microorganisms were used to determine antibiotic selectivity of the peptides: Escherichia coli ATCC 25922, Escherichia coli MCR-1 Af 45 and Klebsiella pneumoniae SSI3010.

[3] = tested on: Escherichia coli MCR-1 Af 45; details: MCR-1 Af 45
Method: as §1, §2, §3

[4] = tested on: Klebsiella pneumoniae SSI3010; details: SSI3010
Method: as §1, §2, §3

Structure (SMILES) | Hemolysis at 0.2 g/L [1] [%] | Escherichia coli ATCC 25922 MIC [2] [mg/L] | Escherichia coli MCR-1 Af 45 MIC [3] [mg/L] | Klebsiella pneumoniae SSI3010 MIC [4] [mg/L]
CCCC[C@H](NC(=O)[C@H](CCCNC(=N)N)NC(=O)[C@H](CCN)NC(=O)[C@@H]1CSSC(C)(C)[C@H](NC(=O)[C@H](Cc2ccc(O)cc2)NC(=O)[C@@H](NC(=O)[C@@H](NC(=O)CN(CCN)C(=O)[C@@H](NC(=O)CNCCN)C(C)C)[C@@H](C)CC)[C@@H](C)CC)C(=O)N[C@@H](CC(N)=O)C(=O)N[C@@H](CCCNC(=N)N)C(=O)N[C@@H](CCN)C(=O)N[C@@H]([C@@H](C)O)C(=O)N[C@H](CCN)C(=O)N[C@@H](CCCCN)C(=O)N1)C(=O)O [Example 13, Ndab-Val-Ndab-Ile-Ile-Tyr-Pen-Asn-Arg-Dab-Thr-^DDab-Lys-Cys-Dab-Arg-Nle] (H-[Gly(N-2-aminoethyl)]V[Gly(N-2-aminoethyl)]IIY[Pen]NR[Dab]T[dDab]KC[Dab]R[Nle]-OH; disulfide 7-14) | 0 | 0.125 | 0.125 | 0.25
CCCC[C@H](NC(=O)[C@H](CCCNC(=N)N)NC(=O)[C@H](CCN)NC(=O)[C@@H]1CSSC(C)(C)[C@H](NC(=O)[C@H](Cc2ccc(O)cc2)NC(=O)[C@@H](NC(=O)[C@@H](NC(=O)CN(CCCN)C(=O)[C@@H](NC(=O)CNCCCN)C(C)C)[C@@H](C)CC)[C@@H](C)CC)C(=O)N[C@@H](CC(N)=O)C(=O)N[C@@H](CCCNC(=N)N)C(=O)N[C@@H](CCN)C(=O)N[C@@H]([C@@H](C)O)C(=O)N[C@H](CCN)C(=O)N[C@@H](CCCCN)C(=O)N1)C(=O)O [Example 14, Norn-Val-Norn-Ile-Ile-Tyr-Pen-Asn-Arg-Dab-Thr-^DDab-Lys-Cys-Dab-Arg-Nle] (H-[Gly(N(CH2)3NH2)]V[Gly(N(CH2)3NH2)]IIY[Pen]NR[Dab]T[dDab]KC[Dab]R[Nle]-OH; disulfide 7-14) | 0 | 0.25 | 0.25 | 0.25
CCCC[C@H](NC(=O)[C@H](CCCNC(=N)N)NC(=O)[C@H](CCCN)NC(=O)[C@@H]1CSSC(C)(C)[C@H](NC(=O)[C@H](Cc2ccc(O)cc2)NC(=O)[C@@H](NC(=O)[C@@H](NC(=O)CN(CCN)C(=O)[C@@H](NC(=O)CNCCN)C(C)C)[C@@H](C)CC)[C@@H](C)CC)C(=O)N[C@@H](CC(N)=O)C(=O)N[C@@H](CCCNC(=N)N)C(=O)N[C@@H](CCN)C(=O)N[C@@H]([C@@H](C)O)C(=O)N[C@H](CCN)C(=O)N[C@@H](CCCCN)C(=O)N1)C(=O)O [Example 15, Ndab-Val-Ndab-Ile-Ile-Tyr-Pen-Asn-Arg-Dab-Thr-^DDab-Lys-Cys-Orn-Arg-Nle] (H-[Gly(N-2-aminoethyl)]V[Gly(N-2-aminoethyl)]IIY[Pen]NR[Dab]T[dDab]KC[Orn]R[Nle]-OH; disulfide 7-14) | 0 | 0.125 | 0.125 | 0.25
CCCC[C@H](NC(=O)[C@H](CCCNC(=N)N)NC(=O)[C@H](CCCN)NC(=O)[C@@H]1CSSC(C)(C)[C@H](NC(=O)[C@H](Cc2ccc(O)cc2)NC(=O)[C@@H](NC(=O)[C@@H](NC(=O)CN(CCN)C(=O)[C@@H](NC(=O)CNCCN)C(C)C)[C@@H](C)CC)[C@@H](C)CC)C(=O)N[C@@H](CC(N)=O)C(=O)N[C@@H](CCCNC(=N)N)C(=O)N[C@@H](CCN)C(=O)N[C@@H]([C@@H](C)O)C(=O)N[C@H](CCN)C(=O)N[C@@H](CCCN)C(=O)N1)C(=O)O [Example 16, Ndab-Val-Ndab-Ile-Ile-Tyr-Pen-Asn-Arg-Dab-Thr-^DDab-Orn-Cys-Orn-Arg-Nle] (H-[Gly(N-2-aminoethyl)]V[Gly(N-2-aminoethyl)]IIY[Pen]NR[Dab]T[dDab][Orn]C[Orn]R[Nle]-OH; disulfide 7-14) | 0 | 0.125 | 0.125 | 0.25
CC[C@H](C)[C@H](NC(=O)[C@@H](NC(=O)[C@@H]1C[C@@H](N)CN1C(=O)[C@@H](NC(=O)[C@@H]1CCCN1)C(C)C)[C@@H](C)CC)C(=O)N[C@@H](Cc1ccc(O)cc1)C(=O)N[C@@H]1C(=O)N[C@@H](CC(N)=O)C(=O)N[C@@H](CCCNC(=N)N)C(=O)N[C@@H](CCN)C(=O)N[C@@H]([C@@H](C)O)C(=O)N[C@H](CCN)C(=O)N[C@@H](CCCCN)C(=O)N[C@H](C(=O)N[C@@H](CCC(N)=O)C(=O)N[C@@H](CCCNC(=N)N)C(=O)N[C@@H](CC2CCCCC2)C(=O)O)CSSC1(C)C [Example 17, Pro-Val-Pro((4R)NH2)-Ile-Ile-Tyr-Pen-Asn-Arg-Dab-Thr-^DDab-Lys-Cys-Gln-Arg-Cha] (HELM PEPTIDE1{P.V.[N[C@@H]1C[C@@H](C(=O)[*:2])N([*:1])C1].I.I.Y.[Pen].N.R.[Dab].T.[NCC[C@@H](N[*:1])C(=O)[*:2]].K.C.Q.R.[Cha]}$PEPTIDE1,PEPTIDE1,7:R3-14:R3$$$V2.0) | 0 | 0.125 | 0.125 | 0.25
CC[C@H](C)[C@H](NC(=O)[C@@H](NC(=O)[C@@H]1C[C@@H](N)CN1C(=O)[C@@H](NC(=O)[C@@H]1C[C@@H](N)CN1)C(C)C)[C@@H](C)CC)C(=O)N[C@@H](Cc1ccc(O)cc1)C(=O)N[C@@H]1C(=O)N[C@@H](CC(N)=O)C(=O)N[C@@H](CCCNC(=N)N)C(=O)N[C@@H](CCN)C(=O)N[C@@H]([C@@H](C)O)C(=O)N[C@H](CCN)C(=O)N[C@@H](CCCCN)C(=O)N[C@H](C(=O)N[C@@H](CCC(N)=O)C(=O)N[C@@H](CCCNC(=N)N)C(=O)N[C@@H](CC2CCCCC2)C(=O)O)CSSC1(C)C [Example 18, Pro((4R)NH2)-Val-Pro((4R)NH2)-Ile-Ile-Tyr-Pen-Asn-Arg-Dab-Thr-^DDab-Lys-Cys-Gln-Arg-Cha] (H-[Pro(4R-NH2)]V[Pro(4R-NH2)]IIY[Pen]NR[Dab]T[dDab]KCQR[Cha]-OH; disulfide 7-14) | 0 | 0.25 | 0.125 | 0.25
CC[C@H](C)[C@H](NC(=O)[C@@H](NC(=O)[C@@H]1C[C@@H](N)CN1C(=O)[C@@H](NC(=O)[C@@H]1CCCN1)C(C)C)[C@@H](C)CC)C(=O)N[C@@H](Cc1ccc(O)cc1)C(=O)N[C@@H]1C(=O)N[C@@H](CC(N)=O)C(=O)N[C@@H](CCCNC(=N)N)C(=O)N[C@@H](CCN)C(=O)N[C@@H]([C@@H](C)O)C(=O)N[C@H](CCN)C(=O)N[C@@H](CCCCN)C(=O)N[C@H](C(=O)N[C@@H](CCN)C(=O)N[C@@H](CCCNC(=N)N)C(=O)N[C@@H](CC2CCCCC2)C(=O)O)CSSC1(C)C [Example 19, Pro-Val-Pro((4R)NH2)-Ile-Ile-Tyr-Pen-Asn-Arg-Dab-Thr-^DDab-Lys-Cys-Dab-Arg-Cha] (HELM PEPTIDE1{P.V.[N[C@@H]1C[C@@H](C(=O)[*:2])N([*:1])C1].I.I.Y.[Pen].N.R.[Dab].T.[NCC[C@@H](N[*:1])C(=O)[*:2]].K.C.[Dab].R.[Cha]}$PEPTIDE1,PEPTIDE1,7:R3-14:R3$$$V2.0) | 0 | 0.0625 | ≤0.03125 | 0.0625
CC[C@H](C)[C@H](NC(=O)[C@@H](NC(=O)[C@@H]1C[C@@H](N)CN1C(=O)[C@@H](NC(=O)[C@@H]1C[C@@H](N)CN1)C(C)C)[C@@H](C)CC)C(=O)N[C@@H](Cc1ccc(O)cc1)C(=O)N[C@@H]1C(=O)N[C@@H](CC(N)=O)C(=O)N[C@@H](CCCNC(=N)N)C(=O)N[C@@H](CCN)C(=O)N[C@@H]([C@@H](C)O)C(=O)N[C@H](CCN)C(=O)N[C@@H](CCCCN)C(=O)N[C@H](C(=O)N[C@@H](CCN)C(=O)N[C@@H](CCCNC(=N)N)C(=O)N[C@@H](CC2CCCCC2)C(=O)O)CSSC1(C)C [Example 20, Pro((4R)NH2)-Val-Pro((4R)NH2)-Ile-Ile-Tyr-Pen-Asn-Arg-Dab-Thr-^DDab-Lys-Cys-Dab-Arg-Cha] (H-[Pro(4R-NH2)]V[Pro(4R-NH2)]IIY[Pen]NR[Dab]T[dDab]KC[Dab]R[Cha]-OH; disulfide 7-14) | 1 | ≤0.03125 | ≤0.03125 | 0.125
CC[C@H](C)[C@H](NC(=O)CN(CCN)C(=O)[C@@H](NC(=O)CNCCN)C(C)C)C(=O)N[C@H](C(=O)N[C@@H](Cc1ccc(O)cc1)C(=O)N[C@@H]1C(=O)N[C@@H](CC(N)=O)C(=O)N[C@@H](CCCNC(=N)N)C(=O)N[C@@H](CCN)C(=O)N[C@@H]([C@@H](C)O)C(=O)N[C@H](CCN)C(=O)N[C@@H](CCCCN)C(=O)N[C@H](C(=O)N[C@@H](CCN)C(=O)N[C@@H](CCCNC(=N)N)C(=O)N[C@@H](CC2CCCCC2)C(=O)O)CSSC1(C)C)[C@@H](C)CC [Example 21, Ndab-Val-Ndab-Ile-Ile-Tyr-Pen-Asn-Arg-Dab-Thr-^DDab-Lys-Cys-Dab-Arg-Cha] (H-[Gly(N-2-aminoethyl)]V[Gly(N-2-aminoethyl)]IIY[Pen]NR[Dab]T[dDab]KC[Dab]R[Cha]-OH; disulfide 7-14) | 0 | 0.0625 | ≤0.03125 | 0.25
